Source: US20260028552A1, “Cationic Surfactants with Improved pH Stability and Their Use” (Locus Solutions IPCo, LLC, priority 2022, published 2026)
Entries after “also recorded” stand apart in the source; their conditions may differ.

What was measured:
Salmonella enterica (G−) = assay: Microbial kill study (log reduction), Salmonella enterica; assay type: cell-based; details: for Log Reduction S. enterica (G−) 100 ppm 0 min / Log Reduction S. enterica (G−) 100 ppm 2 min / Log Reduction S. enterica (G−) 100 ppm 5 min / Activity Reduction S. enterica (G−) 100 ppm 5 min: pH 7, 100 ppm; for Activity Reduction S. enterica (G−) 100 ppm 5 min: day 4 accelerated stability vs day 0
Method: (§1) Studies were conducted to determine the antimicrobial capabilities of cationic arginine derivatized surfactants produced according to embodiments of the subject invention.
(§2) The test organisms were a mixture of Gram-negative and Gram-positive organisms, which served to validate the breadth of the spectrum of control and the utility of the technology for common pathogens of public health concern: Pseudomonas aeruginosa (Gram-negative), Staphylococcus aureus (Gram-positive) and Salmonella entericus (Gram-negative).
(§3) Test bacteria were grown at 32° C. for 24-48 hours in tryptic soy broth, then plated at a starting concentration of 10^7. PBS was used for dilution to achieve the desired cell concentration.
(§4) A stock solution of each antimicrobial treatment was created in water, which was then used to create each desired dilution for treatment: 25, 50, 200, 400, 500, 750, 1,000, 1,500, 2,000 and 4,000 ppm, in an appropriate volume of buffer. Buffers included 100 mM of citric acid, ammonium HCL, PBS or sodium bicarbonate.
(§5) The created cell dilution of 10^7 CFU/mL was mixed with either 100 uL to 900 uL of antimicrobial at the appropriate PPM, or 1-9 mL of antimicrobial at the appropriate PPM. The final concentration of the organism was […] once mixed with the antimicrobial.
(§6) The moment the organism was added to the antimicrobial, the timer was started for the desired time period (0, 2, 5, 6 or 10 min). At the end of the timer, the antimicrobial was neutralized, and dilutions were then plated onto TSA plates and incubated for 24-48 hours at 32° C.
(§7) The negative control comprised 0.1 mL from the organism stock plated onto a TSA plate. For the positive control a serial dilution was set up with a starting concentration of 400 PPM quaternary ammonium compound (QAC) and organism. Dilutions were plated at 10^2, 10^3 and 10^4 CFU/mL.
(§8) After 24 to 48 hours of incubation, plates were removed from the incubator and colony numbers were counted.
(§9) The below scale is commonly used in determining a compound's efficacy, where a greater than or equal to 6-fold logarithmic (≥6 log) reduction in less than 10 minutes is needed for disinfection.
(§10) Table 3 summarizes surface tension reduction at 1000 ppm and log reduction of S. aureus and S. enterica at 0 and 10 min. (200 ppm) for four categories of cationic amino alcohol surfactants according to embodiments of the subject invention.
(§11) Tables 4-5 summarize the pH stability over 4 days for a C12 cationic amino alcohol surfactant according to embodiments of the subject invention, LRO (RO), compared with LAE (RE), where LRO was produced through the coupling of a lauroyl chloride substrate and arginine ethyl ester. Log reductions were measured according to the procedures described above in Example 2.

[1] = base-catalyzed hydrolysis of the ester, lactam formation; listed as LAE; cited from earlier work
[2] = test system: Staphylococcus aureus (G+); assay: Microbial kill study (log reduction), Staphylococcus aureus; assay type: cell-based; details: for Log Reduction S. aureus (G+) 100 ppm 0 min / Log Reduction S. aureus (G+) 100 ppm 2 min / Log Reduction S. aureus (G+) 100 ppm 5 min / Activity Reduction S. aureus (G+) 100 ppm 5 min: pH 7, 100 ppm; for Activity Reduction S. aureus (G+) 100 ppm 5 min: day 4 accelerated stability vs day 0
Method: as §1, §2, §3, §4, §5, §6, §7, §8, §9, §10, §11

[3] = Surface tension reduction at 1000 ppm; assay type: physicochemical
Method: Table 2 summarizes surface tension reduction at 1000 ppm and log reduction of P. aeruginosa at 0 and 10 min. (200 ppm) for two C12 cationic amino alcohol surfactants according to embodiments of the subject invention, LRO (R) and LKO (K), where LRO was produced through the coupling of a lauroyl chloride substrate and arginine ethyl ester and LKO was produced through the coupling of a lauroyl chloride substrate and lysine ethyl ester.
as §10

[4] = test system: Pseudomonas aeruginosa (G−); assay: Microbial kill study (log reduction), Pseudomonas aeruginosa; assay type: cell-based; details: P. aeruginosa
Method: as §1, §2, §3, §4
The created cell dilution of 10^7 CFU/mL was mixed with either 100 uL to 900 uL of antimicrobial at the appropriate PPM, or 1-9 mL of antimicrobial at the appropriate PPM. The final concentration of the organism was […] once mixed with the antimicrobial. […]
After 24 to 48 hours of incubation, plates were removed from the incubator and colony numbers were counted. […]

Compound	Log Reduction S. enterica (G−) 100 ppm 0 min (Salmonella enterica (G−); Day 0 Stability) [log]	Log Reduction S. enterica (G−) 100 ppm 2 min (Salmonella enterica (G−); Day 0 Stability) [log]	Log Reduction S. enterica (G−) 100 ppm 5 min (Salmonella enterica (G−); Day 0 Stability) [log]	Log Reduction S. enterica (G−) 100 ppm 0 min (Salmonella enterica (G−); Day 4 Accelerated Stability) [log]	Log Reduction S. enterica (G−) 100 ppm 2 min (Salmonella enterica (G−); Day 4 Accelerated Stability) [log]	Log Reduction S. enterica (G−) 100 ppm 5 min (Salmonella enterica (G−); Day 4 Accelerated Stability) [log]	Activity Reduction S. enterica (G−) 100 ppm 5 min (Salmonella enterica (G−)) [%]	Log Reduction S. aureus (G+) 100 ppm 0 min ([2]; Day 0 Stability) [log]	Log Reduction S. aureus (G+) 100 ppm 2 min ([2]; Day 0 Stability) [log]	Log Reduction S. aureus (G+) 100 ppm 5 min ([2]; Day 0 Stability) [log]	Log Reduction S. aureus (G+) 100 ppm 0 min ([2]; Day 4 Accelerated Stability) [log]	Log Reduction S. aureus (G+) 100 ppm 2 min ([2]; Day 4 Accelerated Stability) [log]	Log Reduction S. aureus (G+) 100 ppm 5 min ([2]; Day 4 Accelerated Stability) [log]	Activity Reduction S. aureus (G+) 100 ppm 5 min [2] [%]	Log Reduction S. enterica (G−) 200 ppm 0 min (Salmonella enterica (G−)) [log]	Log Reduction S. enterica (G−) 200 ppm 10 min (Salmonella enterica (G−)) [log]	Surface Tension 1000 ppm ([3]; 1000 ppm (Table 3)) [mN/m]	Log Reduction S. aureus (G+) 200 ppm 0 min [2] [log]	Log Reduction S. aureus (G+) 200 ppm 10 min [2] [log]	also measured
CCCCCCCCCCCC(=O)N[C@@H](CCCN=C(N)N)C(=O)OCC [C12 R E, Ethyl lauroyl arginate, reference compound]	0.00	6.42	6.42	0.00	0.00	0.00	100.00	0.00	6.53	6.53	0.00	0.93	1.14	82.54						pH stability [1]: decreases at higher pH; also recorded: unstable at pH 7 or above
CCCCCCCCCCCC(=O)NC(CO)CCCNC(=N)N (stereo not drawn) [C12 R O, lauryl argininol alcohol]	0.00	1.32	2.36	0.00	0.00	0.79	66.53	0.00	2.17	6.53	0.00	0.76	6.53	0.00	0.00	6.20	23.75	0.00	6.24	Surface Tension 1000 ppm ([3]; 1000 ppm (Table 2)): 23.75 mN/m; Log Reduction 200 ppm 0 min ([4]; 0 min): 1.85 log; Log Reduction 200 ppm 10 min ([4]; 10 min): 6.25 log
linear sophorolipid argininol amide [SLP R O]															0.00	0.00	41.89	0.00	2.23	
